This is an account of results in patent US8013008B2, “Cyclic amine compound” (Takeda Pharmaceutical Company Limited, priority 2006, dated 2011).

Experiment [1] addresses T1, wild-type androgen receptor (AR) (Homo sapiens, UniProt P10275).
T1 sequence (P10275 1-920): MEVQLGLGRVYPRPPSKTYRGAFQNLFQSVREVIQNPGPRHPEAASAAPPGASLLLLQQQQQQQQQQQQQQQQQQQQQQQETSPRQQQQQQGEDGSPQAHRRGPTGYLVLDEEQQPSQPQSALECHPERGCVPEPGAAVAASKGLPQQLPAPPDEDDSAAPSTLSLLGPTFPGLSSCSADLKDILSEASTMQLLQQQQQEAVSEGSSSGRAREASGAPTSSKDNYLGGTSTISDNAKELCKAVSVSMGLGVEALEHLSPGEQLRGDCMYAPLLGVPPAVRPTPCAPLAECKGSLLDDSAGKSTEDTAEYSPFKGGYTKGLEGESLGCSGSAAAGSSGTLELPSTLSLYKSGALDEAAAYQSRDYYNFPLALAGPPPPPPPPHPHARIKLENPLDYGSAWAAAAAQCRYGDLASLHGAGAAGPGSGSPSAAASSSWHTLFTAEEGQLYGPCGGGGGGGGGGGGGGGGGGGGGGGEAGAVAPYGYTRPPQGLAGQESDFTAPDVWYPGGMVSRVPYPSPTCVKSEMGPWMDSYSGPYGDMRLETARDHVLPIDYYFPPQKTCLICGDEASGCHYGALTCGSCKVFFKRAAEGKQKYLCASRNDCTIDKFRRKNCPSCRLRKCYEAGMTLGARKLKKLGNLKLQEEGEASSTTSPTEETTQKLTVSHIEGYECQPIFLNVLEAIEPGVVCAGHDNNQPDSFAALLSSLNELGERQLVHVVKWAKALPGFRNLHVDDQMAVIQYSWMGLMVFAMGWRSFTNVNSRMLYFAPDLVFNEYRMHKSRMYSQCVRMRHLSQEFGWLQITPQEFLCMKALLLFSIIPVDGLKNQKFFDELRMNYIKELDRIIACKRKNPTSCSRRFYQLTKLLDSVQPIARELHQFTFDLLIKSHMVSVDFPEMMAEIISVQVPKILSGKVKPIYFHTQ
As to the kind of experiment: AR binding inhibitory test (wild-type). The settings on record: 100 nM compound; 3 nM radiolabeled mibolerone; 4° C., 3 hr; dextran/charcoal B/F separation; read-out: Inhibitory rate (%) at 100 nM. Here is the method:
To a solution containing a wild-type androgen receptor (AR) was added 3 nM radiolabeled mibolerone and 100 nM compound. After the solution was incubated at 4° C. for 3 hr, B (Bound)/F (Free) separation was performed by the dextran/charcoal method. The label count of B was measured, and the inhibitory rate of the compound was calculated.

In another experiment the target is T2, AR (Homo sapiens, UniProt P10275).
T2 construct: expressed in transfected cells; host or cells: Cos-7
T2 sequence (P10275 1-920): T1 sequence (P10275 1-920)
As to the kind of experiment: Reporter assay system using Cos7 cell (AR gene + MMTV androgen responsive promoter-luciferase). In kind it is cell-based. The settings on record: 100 nM compound, 24 hr; Cos-7 co-transfected with AR and MMTV-luciferase vectors; luciferase activity induced by 1 μM 5α-dihydrotestosterone taken as 100. As for the experimental part:
Cos-7(5,000,000 cells) were sown in a flask (150 cm^2), and cultured in a culture medium (DMEM medium containing 10% Dextran Charcoal (DCC)-Fetal Bovine Serum (FBS) and 2 mM glutamine) for 24 hr. A vector DNA containing AR gene, and a vector DNA prepared by binging luciferase gene at the downstream of an androgen responsive promoter derived from MMTV (Mouse Mammary Tumor Virus) were co-transfected by the liposome method. After culture for 4 hr, the cells were harvested, 10,000 cells were plated on a 96 well plate and cultured for 2 hr, after which 1 μM of 5α-dihydrotestosterone or 100 nM of a compound was added thereto. After culture for 24 hr, luciferase activity was determined. The induction rate by the compound was determined with the luciferase activity induced by addition of 1 μM of 5α-dihydrotestosterone as 100.

For `C[C@@H]1N(c2ccc(C#N)c(F)c2)CC[C@]1(C)O` [Example 1, 2-fluoro-4-[(2S,3S)-3-hydroxy-2,3-dimethylpyrrolidin-1-yl]benzonitrile], in experiment [1], the inhibition at 0.1 µM came out at 95%. Besides, the “Induction rate (%) at 100 nM” value at AR is 65%.
Consider `CC[C@]1(O)CCN(c2cc(F)c(C#N)c(F)c2)[C@H]1C` [Example 7, 4-[(2S,3S)-3-ethyl-3-hydroxy-2-methylpyrrolidin-1-yl]-2,6-difluorobenzonitrile], for which the inhibition at 0.1 µM in experiment [1] came to 98%. Further, the “Induction rate (%) at 100 nM” value on AR was 107%.
For `CC(C)[C@@H]1N(c2cc(F)c(C#N)c(F)c2)CC[C@]1(C)O` [Example 20, 2,6-difluoro-4-[(2S,3S)-3-hydroxy-2-isopropyl-3-methylpyrrolidin-1-yl]benzonitrile] the same measures were 98% and 59%.
For `C[C@@H]1N(c2ccc(C#N)c(Cl)c2)CC[C@@]1(O)C(F)(F)F` [Example 18, 2-chloro-4-[(2S,3S)-3-hydroxy-2-methyl-3-(trifluoromethyl)pyrrolidin-1-yl]benzonitrile] the same measures were 100% and 89%.
For `C[C@@H]1N(c2ccc(C#N)c(F)c2)CC[C@@]1(O)C1CC1` [Example 32, 4-[(2S,3R)-3-cyclopropyl-3-hydroxy-2-methylpyrrolidin-1-yl]-2-fluorobenzonitrile], the inhibition at 0.1 µM in experiment [1] amounted to 98%. In addition, at AR, the “Induction rate (%) at 100 nM” value stood at 77%.
For `C[C@@H]1C[C@](C)(O)[C@H](C)N1c1ccc(C#N)c(Cl)c1` [Example 60, 2-chloro-4-[(2S,3S,5R)-3-hydroxy-2,3,5-trimethylpyrrolidin-1-yl]benzonitrile] the same measures were 92% and 37%.
